Measured values: ChEMBL document CHEMBL4800722, “Data for DCP probe BI 605906” (2021)

Key:
[1] = target: Serotonin 3 (5-HT3) receptor (Homo sapiens) (UniProt P46098+A5X5Y0+O95264+Q70Z44+Q8WXA8); assay: 5HT3/HU Eurofins SafetyScreen44 (BI); format: protein-complex assay; conditions: Compound concentration 10.0 uM
[2] = target: Voltage-dependent L-type calcium channel subunit alpha-1C (CA+/DILSI/RA) (Rattus norvegicus, UniProt P22002); assay: CA+/DILSI/RA Eurofins SafetyScreen44 (BI); conditions: read-out: % Ctrl
[3] = target: Carbonic anhydrase (Homo sapiens) (UniProt P00918+P43166+P00915+P07451+P23280+O43570+Q9ULX7+Q16790+P22748+Q8N1Q1+Q9Y2D0+P35218); assay: CANHYDRASE Eurofins SafetyScreen44 (BI); format: protein assay; conditions: Compound concentration 10.0 uM
[4] = target: Urotensin-2 receptor (Homo sapiens) (UniProt Q9UKP6); assay: UROTENSIN_II Eurofins SafetyScreen44 (BI); conditions: Compound concentration 10.0 uM
[5] = target: Serine/threonine-protein kinase LATS2 (Homo sapiens) (UniProt Q9NRM7); assay: LATS2 Invitrogen Lab (UK) kinase screen (BI); conditions: Compound concentration 1.0 uM
[6] = target: Serine/threonine-protein kinase greatwall (Homo sapiens) (UniProt Q96GX5); assay: MASTL Invitrogen Lab (UK) kinase screen (BI); conditions: Compound concentration 1.0 uM
[7] = target: Serine/threonine-protein kinase pim-3 (Homo sapiens) (UniProt Q86V86); assay: PIM3 Invitrogen Lab (UK) kinase screen (BI); conditions: Compound concentration 1.0 uM
[8] = target: Serine/threonine-protein kinase 38-like (Homo sapiens) (UniProt Q9Y2H1); assay: STK38L (NDR2) Invitrogen Lab (UK) kinase screen (BI); conditions: Compound concentration 1.0 uM
[9] = target: Tyrosine-protein kinase Fgr (Homo sapiens) (UniProt P09769); assay: FGR Invitrogen Lab (UK) kinase screen (BI); conditions: Compound concentration 1.0 uM
[10] = target: Maternal embryonic leucine zipper kinase (Homo sapiens) (UniProt Q14680); assay: MELK Invitrogen Lab (UK) kinase screen (BI); conditions: Compound concentration 1.0 uM
[11] = target: Protein kinase C alpha type (Homo sapiens) (UniProt P17252); assay: PRKCA Invitrogen Lab (UK) kinase screen (BI); conditions: Compound concentration 1.0 uM
[12] = target: Dual specificity protein kinase TTK (Homo sapiens) (UniProt P33981); assay: TTK Invitrogen Lab (UK) kinase screen (BI); conditions: Compound concentration 1.0 uM
[13] = target: Aurora kinase B (Homo sapiens) (UniProt Q96GD4); assay: AURORA B DUNDEE kinase screen (BI); conditions: Compound concentration 10.0 uM
[14] = target: Cyclin-dependent kinase 2/cyclin A (Homo sapiens) (UniProt P24941+P20248+P78396); assay: CDK2/CYCLINA DUNDEE kinase screen (BI); format: protein-complex assay; conditions: Compound concentration 10.0 uM
[15] = target: Serine/threonine-protein kinase Nek2 (Homo sapiens) (UniProt P51955); assay: NEK2A DUNDEE kinase screen (BI); conditions: Compound concentration 10.0 uM
[16] = target: MAP kinase-activated protein kinase 5 (Homo sapiens) (UniProt Q8IW41); assay: PRAK DUNDEE kinase screen (BI); conditions: Compound concentration 10.0 uM
[17] = target: 5-hydroxytryptamine receptor 1B (Homo sapiens) (UniProt P28222); conditions: Compound concentration 10.0 uM
[18] = target: Alpha-2B adrenergic receptor (Homo sapiens) (UniProt P18089); conditions: Compound concentration 10.0 uM
[19] = target: Alpha-2C adrenergic receptor (Homo sapiens) (UniProt P18825); conditions: Compound concentration 10.0 uM
[20] = target: GABA-A receptor; anion channel (Rattus norvegicus) (UniProt O09028+P15431+P18506+P18508+P19969+P20236+P23574+P23576+P28471+P28473+P30191+P62813+P63079+P63138+Q91ZM7+Q9ES14); conditions: Compound concentration 10.0 uM
Rattus norvegicus = species: Rattus norvegicus; conditions: Compound concentration 10.0 uM
[21] = target: Sigma intracellular receptor 2 (Homo sapiens) (UniProt Q5BJF2); conditions: Compound concentration 10.0 uM
[22] = target: Muscarinic acetylcholine receptor (Rattus norvegicus) (UniProt P08482+P08483+P08485+P08911+P10980); conditions: Compound concentration 10.0 uM
[23] = target: AP2-associated protein kinase 1 (Homo sapiens, UniProt Q2M2I8)
[24] = target: AMPK alpha1/beta2/gamma1 (Homo sapiens) (UniProt O43741+P54619+Q13131); conditions: Compound concentration 1.0 uM
[25] = target: Kinase suppressor of Ras 2 (Homo sapiens) (UniProt Q6VAB6); conditions: Compound concentration 1.0 uM
[26] = target: Mitogen-activated protein kinase 7 (Homo sapiens) (UniProt Q13164); conditions: Compound concentration 1.0 uM
[27] = target: Serine/threonine-protein kinase 32C (Homo sapiens) (UniProt Q86UX6); conditions: Compound concentration 1.0 uM
[28] = target: Dual specificity testis-specific protein kinase 1 (Homo sapiens) (UniProt Q15569); conditions: Compound concentration 1.0 uM
[29] = target: TRAF2 and NCK-interacting protein kinase (Homo sapiens) (UniProt Q9UKE5); conditions: Compound concentration 1.0 uM
[30] = target: Beta-adrenergic receptor kinase 1 (Homo sapiens) (UniProt P25098); conditions: Compound concentration 1.0 uM
[31] = target: Tyrosine-protein kinase receptor UFO (Homo sapiens) (UniProt P30530)
[32] = target: Serine/threonine-protein kinase MRCK alpha (Homo sapiens) (UniProt Q5VT25); conditions: Compound concentration 1.0 uM
[33] = target: Myotonin-protein kinase (Homo sapiens) (UniProt Q09013); conditions: Compound concentration 1.0 uM
[34] = target: G protein-coupled receptor kinase 4 (Homo sapiens) (UniProt P32298); conditions: Compound concentration 1.0 uM
[35] = target: Mitogen-activated protein kinase kinase kinase 10 (Homo sapiens) (UniProt Q02779); conditions: Compound concentration 1.0 uM
[36] = target: Mitogen-activated protein kinase 3 (Homo sapiens) (UniProt P27361); conditions: Compound concentration 1.0 uM
[37] = target: Phosphatidylinositol 3-kinase catalytic subunit type 3 (Homo sapiens) (UniProt Q8NEB9); conditions: Compound concentration 1.0 uM
[38] = target: SRSF protein kinase 1 (Homo sapiens) (UniProt Q96SB4); conditions: Compound concentration 1.0 uM
[39] = target: Serine/threonine-protein kinase TAO2 (Homo sapiens) (UniProt Q9UL54); conditions: Compound concentration 1.0 uM

Sequence of AP2-associated protein kinase 1 (Q2M2I8 whole entry, looked up): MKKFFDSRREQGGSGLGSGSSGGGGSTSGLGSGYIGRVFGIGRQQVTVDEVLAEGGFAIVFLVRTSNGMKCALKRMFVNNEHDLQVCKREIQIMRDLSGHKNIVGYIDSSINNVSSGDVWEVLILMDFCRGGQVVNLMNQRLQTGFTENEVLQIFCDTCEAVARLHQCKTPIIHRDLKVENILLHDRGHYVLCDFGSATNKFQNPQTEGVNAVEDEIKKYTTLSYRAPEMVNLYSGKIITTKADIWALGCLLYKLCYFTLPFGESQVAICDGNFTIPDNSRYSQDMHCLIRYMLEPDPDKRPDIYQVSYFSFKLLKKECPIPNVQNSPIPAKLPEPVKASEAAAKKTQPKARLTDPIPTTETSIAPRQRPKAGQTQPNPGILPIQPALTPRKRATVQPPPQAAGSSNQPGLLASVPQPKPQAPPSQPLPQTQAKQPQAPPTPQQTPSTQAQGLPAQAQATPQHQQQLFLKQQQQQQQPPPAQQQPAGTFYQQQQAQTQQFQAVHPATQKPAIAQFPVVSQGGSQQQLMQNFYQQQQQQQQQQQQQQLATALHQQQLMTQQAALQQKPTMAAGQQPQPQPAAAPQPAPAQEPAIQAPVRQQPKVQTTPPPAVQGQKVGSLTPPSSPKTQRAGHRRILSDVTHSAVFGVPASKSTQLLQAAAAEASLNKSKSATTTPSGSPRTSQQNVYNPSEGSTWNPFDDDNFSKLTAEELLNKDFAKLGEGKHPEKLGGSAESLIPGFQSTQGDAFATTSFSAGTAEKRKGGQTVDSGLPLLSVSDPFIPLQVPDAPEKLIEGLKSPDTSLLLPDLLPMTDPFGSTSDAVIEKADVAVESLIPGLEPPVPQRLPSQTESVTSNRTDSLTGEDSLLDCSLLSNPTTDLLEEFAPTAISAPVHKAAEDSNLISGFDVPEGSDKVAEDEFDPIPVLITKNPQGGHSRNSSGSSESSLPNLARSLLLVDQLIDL
Sequence of Voltage-dependent L-type calcium channel subunit alpha-1C (CA+/DILSI/RA) (P22002 whole entry): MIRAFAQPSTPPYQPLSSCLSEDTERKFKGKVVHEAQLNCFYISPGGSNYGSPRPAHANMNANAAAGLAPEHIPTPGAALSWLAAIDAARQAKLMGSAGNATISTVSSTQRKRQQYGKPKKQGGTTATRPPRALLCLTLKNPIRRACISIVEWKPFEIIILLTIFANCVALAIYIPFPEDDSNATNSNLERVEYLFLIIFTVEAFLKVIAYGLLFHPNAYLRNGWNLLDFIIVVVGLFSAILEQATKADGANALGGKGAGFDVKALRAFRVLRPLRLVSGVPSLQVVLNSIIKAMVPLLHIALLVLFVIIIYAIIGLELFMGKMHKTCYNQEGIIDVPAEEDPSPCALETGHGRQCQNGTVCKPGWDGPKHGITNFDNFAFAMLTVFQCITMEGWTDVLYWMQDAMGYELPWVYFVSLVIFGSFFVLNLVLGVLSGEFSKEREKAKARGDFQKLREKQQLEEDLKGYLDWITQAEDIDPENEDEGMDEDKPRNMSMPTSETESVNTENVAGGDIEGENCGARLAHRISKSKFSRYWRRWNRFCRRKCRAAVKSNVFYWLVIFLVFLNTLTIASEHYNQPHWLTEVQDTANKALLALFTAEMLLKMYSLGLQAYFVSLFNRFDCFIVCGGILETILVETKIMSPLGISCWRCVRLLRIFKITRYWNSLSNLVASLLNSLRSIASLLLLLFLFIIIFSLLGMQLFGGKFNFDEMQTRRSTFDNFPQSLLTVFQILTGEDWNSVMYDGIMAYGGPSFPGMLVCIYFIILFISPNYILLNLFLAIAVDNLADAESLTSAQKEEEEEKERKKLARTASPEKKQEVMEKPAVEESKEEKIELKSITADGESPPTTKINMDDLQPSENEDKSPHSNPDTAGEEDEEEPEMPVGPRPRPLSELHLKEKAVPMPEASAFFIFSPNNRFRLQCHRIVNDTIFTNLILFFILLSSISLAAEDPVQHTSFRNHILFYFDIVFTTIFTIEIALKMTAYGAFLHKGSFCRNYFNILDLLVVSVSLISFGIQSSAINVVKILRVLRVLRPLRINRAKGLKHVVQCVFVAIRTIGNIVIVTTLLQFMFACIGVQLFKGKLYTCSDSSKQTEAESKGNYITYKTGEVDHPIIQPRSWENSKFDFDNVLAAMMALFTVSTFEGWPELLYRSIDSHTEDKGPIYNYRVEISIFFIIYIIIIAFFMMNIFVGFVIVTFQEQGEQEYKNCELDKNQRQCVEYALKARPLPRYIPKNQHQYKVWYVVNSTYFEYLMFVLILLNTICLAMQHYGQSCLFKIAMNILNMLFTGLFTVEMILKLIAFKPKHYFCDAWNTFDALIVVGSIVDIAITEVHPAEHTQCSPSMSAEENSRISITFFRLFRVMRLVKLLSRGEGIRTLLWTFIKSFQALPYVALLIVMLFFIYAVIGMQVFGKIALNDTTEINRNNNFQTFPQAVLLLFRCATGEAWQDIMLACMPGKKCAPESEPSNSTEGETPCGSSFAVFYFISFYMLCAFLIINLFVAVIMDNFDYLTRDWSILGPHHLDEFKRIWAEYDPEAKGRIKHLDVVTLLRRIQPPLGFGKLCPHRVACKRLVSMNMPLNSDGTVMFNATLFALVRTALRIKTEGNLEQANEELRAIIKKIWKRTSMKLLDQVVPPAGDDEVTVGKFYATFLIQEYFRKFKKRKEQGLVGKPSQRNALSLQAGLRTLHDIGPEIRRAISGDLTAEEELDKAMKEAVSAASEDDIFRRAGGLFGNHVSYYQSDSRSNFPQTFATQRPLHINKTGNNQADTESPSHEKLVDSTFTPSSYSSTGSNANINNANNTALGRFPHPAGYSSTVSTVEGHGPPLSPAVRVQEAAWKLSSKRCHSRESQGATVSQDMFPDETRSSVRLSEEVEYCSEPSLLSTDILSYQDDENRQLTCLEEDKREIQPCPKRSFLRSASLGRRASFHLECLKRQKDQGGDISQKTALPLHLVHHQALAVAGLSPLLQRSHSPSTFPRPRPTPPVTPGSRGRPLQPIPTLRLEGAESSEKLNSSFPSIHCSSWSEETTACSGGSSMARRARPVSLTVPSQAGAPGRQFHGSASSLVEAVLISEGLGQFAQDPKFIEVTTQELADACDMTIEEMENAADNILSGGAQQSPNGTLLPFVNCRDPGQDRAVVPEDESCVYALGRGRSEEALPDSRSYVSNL
Sequence of Tyrosine-protein kinase receptor UFO (Homo sapiens) (P30530 whole entry): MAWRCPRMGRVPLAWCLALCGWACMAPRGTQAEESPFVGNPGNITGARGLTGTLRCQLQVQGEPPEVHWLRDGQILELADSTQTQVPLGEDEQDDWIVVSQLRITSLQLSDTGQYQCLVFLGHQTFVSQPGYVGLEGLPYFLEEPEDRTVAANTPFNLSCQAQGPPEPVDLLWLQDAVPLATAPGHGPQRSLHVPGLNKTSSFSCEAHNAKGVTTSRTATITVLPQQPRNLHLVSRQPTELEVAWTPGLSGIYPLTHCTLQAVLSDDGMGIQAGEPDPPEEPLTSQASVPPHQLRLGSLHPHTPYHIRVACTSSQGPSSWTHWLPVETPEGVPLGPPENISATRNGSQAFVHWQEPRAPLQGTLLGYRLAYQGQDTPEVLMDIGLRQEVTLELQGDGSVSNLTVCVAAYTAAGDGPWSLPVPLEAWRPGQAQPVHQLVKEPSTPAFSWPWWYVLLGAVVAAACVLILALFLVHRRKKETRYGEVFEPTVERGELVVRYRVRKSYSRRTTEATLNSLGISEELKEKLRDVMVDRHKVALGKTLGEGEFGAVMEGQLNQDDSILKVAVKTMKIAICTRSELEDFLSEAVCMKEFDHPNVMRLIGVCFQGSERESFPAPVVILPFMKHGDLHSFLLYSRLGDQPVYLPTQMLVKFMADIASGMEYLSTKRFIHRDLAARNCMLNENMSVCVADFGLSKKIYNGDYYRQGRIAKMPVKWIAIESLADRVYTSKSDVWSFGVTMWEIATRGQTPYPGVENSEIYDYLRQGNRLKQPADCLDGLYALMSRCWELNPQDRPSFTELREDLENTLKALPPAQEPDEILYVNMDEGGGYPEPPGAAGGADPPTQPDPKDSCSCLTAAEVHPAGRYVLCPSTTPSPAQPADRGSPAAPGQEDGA
Sequence of Aurora kinase B (Homo sapiens) (Q96GD4 whole entry): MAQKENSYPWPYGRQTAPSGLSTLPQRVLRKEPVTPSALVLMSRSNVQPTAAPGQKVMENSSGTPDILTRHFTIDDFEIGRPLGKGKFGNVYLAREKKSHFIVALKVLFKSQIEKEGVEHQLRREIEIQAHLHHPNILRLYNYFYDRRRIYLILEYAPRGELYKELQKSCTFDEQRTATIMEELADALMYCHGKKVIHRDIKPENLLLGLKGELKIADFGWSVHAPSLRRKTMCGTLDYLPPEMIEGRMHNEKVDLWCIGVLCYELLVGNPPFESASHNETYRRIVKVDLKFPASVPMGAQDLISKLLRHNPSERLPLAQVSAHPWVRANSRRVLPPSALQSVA
Sequence of G protein-coupled receptor kinase 4 (Homo sapiens) (P32298 whole entry, looked up): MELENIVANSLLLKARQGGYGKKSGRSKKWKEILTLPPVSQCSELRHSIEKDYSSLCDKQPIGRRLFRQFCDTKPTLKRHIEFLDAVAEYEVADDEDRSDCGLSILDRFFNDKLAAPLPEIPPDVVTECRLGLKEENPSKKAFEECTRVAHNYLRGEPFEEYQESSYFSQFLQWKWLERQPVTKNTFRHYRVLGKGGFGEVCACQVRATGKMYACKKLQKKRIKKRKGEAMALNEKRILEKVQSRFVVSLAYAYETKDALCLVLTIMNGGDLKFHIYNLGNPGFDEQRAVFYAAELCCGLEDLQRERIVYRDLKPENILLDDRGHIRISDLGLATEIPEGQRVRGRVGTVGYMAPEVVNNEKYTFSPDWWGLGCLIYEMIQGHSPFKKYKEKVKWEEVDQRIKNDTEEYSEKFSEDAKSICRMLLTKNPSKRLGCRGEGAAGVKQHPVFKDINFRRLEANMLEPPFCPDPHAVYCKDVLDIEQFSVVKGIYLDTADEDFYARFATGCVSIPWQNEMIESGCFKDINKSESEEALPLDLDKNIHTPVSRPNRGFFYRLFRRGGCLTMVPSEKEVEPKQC

How did the residual activity [1] turn out when `CCC(F)(F)c1cc(N2CCC(S(C)(=O)=O)CC2)nc2sc(C(N)=O)c(N)c12` [BI-605906] was run?
The residual activity was 84%.

What about the activity at 1 µM ([2]; compound concentration 1 uM) of the same molecule?
The activity at 1 µM was 99% (not active).

What about the activity at 3 µM ([2]; compound concentration 3 uM) of the same molecule?
The activity at 3 µM was 111% (not active).

What about the activity at 10 µM ([2]; compound concentration 10 uM) of the same molecule?
The activity at 10 µM was 101% (not active).

And the activity at 30 µM ([2]; compound concentration 30 uM)?
The activity at 30 µM was 87% (not active).

What about the activity at 100 µM ([2]; compound concentration 100 uM) of the same molecule?
The activity at 100 µM was 45%.

And the residual activity [3]?
Its residual activity is 86%.

What about the residual activity [4] of the same molecule?
The residual activity was 107%.

And the residual activity [5]?
The residual activity was 88%.

What about the residual activity [6] of the same molecule?
Its residual activity is 85%.

And the residual activity [7]?
Its residual activity is 103%.

What about the residual activity [8] of the same molecule?
Its residual activity is 125%.

And the residual activity [9]?
Its residual activity is 78%.

What about the residual activity [10] of the same molecule?
The residual activity was 103%.

And the residual activity [11]?
Its residual activity is 85%.

And the residual activity [12]?
Its residual activity is 75%.

What about the residual activity [13] of the same molecule?
Its residual activity is 60.9%.

What about the residual activity [14] of the same molecule?
Its residual activity is 78%.

What about the residual activity [15] of the same molecule?
The residual activity was 74.8%.

What about the residual activity [16] of the same molecule?
The residual activity was 61.1%.

And the inhibition [17]?
Its inhibition is 3.43%.

What about the inhibition [18] of the same molecule?
The inhibition was 9.66%.

And the inhibition [19]?
The inhibition was 13.7%.

And the inhibition [20]?
Its inhibition is 8.92%.

What about the inhibition (Rattus norvegicus) of the same molecule?
Its inhibition is 51.9%.

What about the inhibition [21] of the same molecule?
The inhibition was 34.5%.

What about the residual activity [22] of the same molecule?
The residual activity was 99%.

And the residual activity ([23]; Compound concentration 0.001 uM)?
Its residual activity is 101%.

And the residual activity ([23]; Compound concentration 1.0 uM)?
The residual activity was 13%.

And the residual activity ([23]; Compound concentration 20.0 uM)?
The residual activity was 4%.

And the residual activity [24]?
The residual activity was 91%.

What about the residual activity [25] of the same molecule?
Its residual activity is 92%.

And the residual activity [26]?
The residual activity was 98%.

What about the residual activity [27] of the same molecule?
Its residual activity is 99%.

And the residual activity [28]?
The residual activity was 92%.

And the residual activity [29]?
The residual activity was 99%.

And the residual activity [30]?
Its residual activity is 95%.

And the residual activity ([31]; Compound concentration 1.0 uM)?
Its residual activity is 98%.

What about the residual activity ([31]; Compound concentration 10.0 uM) of the same molecule?
Its residual activity is 85%.

And the residual activity [32]?
Its residual activity is 95%.

What about the residual activity [33] of the same molecule?
Its residual activity is 95%.

What about the residual activity [34] of the same molecule?
Its residual activity is 100%.

And the residual activity [35]?
The residual activity was 98%.

What about the residual activity [36] of the same molecule?
Its residual activity is 100%.

And the residual activity [37]?
The residual activity was 91%.

What about the residual activity [38] of the same molecule?
Its residual activity is 99%.

And the residual activity [39]?
The residual activity was 101%.
